From patent publication US20180371076A1, “MATERNAL TH17 CELLS AND PSYCHIATRIC DISORDERS” (New York University, priority 2017, published 2018) come the findings set out here.

For data set [1], the system named is offspring of pregnant mice (MIA mouse model). In words: Three-chamber social approach test in adult offspring. The class given is in vivo. The protocol:
Maternal Immune Activation. Mice were mated overnight and females were checked daily for the presence of seminal plugs, noted as embryonic day 0.5 (E0.5). On E12.5, pregnant female mice were weighed and injected with a single dose (20 mg/kg; i.p.) of poly(I:C) (Sigma Aldrich) or PBS vehicle. Each dam was returned to its cage and left undisturbed until the birth of its litter. All pups remained with the mother until weaning on postnatal day 21 (P21), at which time mice were group housed at maximum 5 per cage with same-sex littermates. For the IL-17 cytokine blockade experiment, monoclonal IL-17a blocking antibody (clone 50104; R&D) or isotype control antibody (IgG2a, clone 54447; R&D) was administered 6 h before maternal immune activation (FIG. 2) via i.p. route (500 μg/animal) or 2 days after maternal immune activation (FIG. 5) via i.p. route (500 μg/animal).
Three-chamber social approach. Twelve-week-old male mice were tested for social behavior using a three-chamber social approach paradigm. Experimental mice were habituated for 1 h in separate clean holding cages and then introduced into a three-chamber arena with only empty object-containment cages (circular metallic cages, Stoelting Neuroscience) for a 10-min acclimation phase in two 5-min sessions in a 3-4 h period. The following day the mice were placed in the center chamber (without access to the left and right social test areas) and allowed to explore the center area for 5 min. […] Experimental mice were given 10 min to explore both chambers and measured for approach behavior as interaction time (i.e. sniffing, approach) with targets in each chamber (within 2 cm, excluding non-nose contact or exploration). Sessions were video-recorded and object exploration time and total distance moved were analyzed using the Noldus tracking system. A social preference index was calculated as the percentage of time spent investigating the social target out of the total exploration time of both objects. […]

The subject of data set [2] is IL-17a. Nature of the data set: IL-17a ELISA of maternal sera and placenta/decidua extract. The class given is in vivo, mouse. Particulars: for maternal serum IL-17a: serum at E14.5-E15.5, vs PBS. The protocol:
Cell preparation, Flow cytometry, ELISA. Embryos at each implantation site were dissected in ice-cold HBSS containing Ca^2+ and Mg^2+. Myometrium was first peeled off of the decidua and embryos were discarded. Dissected decidual and placental tissues were then minced and enzymatically dissociated in HBSS containing 0.28 Wunsch units (WU)/mL Liberase (Roche) and 30 μg/ml DNase I (Roche) for 30 min at 37° C. with intermittent mixing. Digested tissues were washed in PBS containing 5 mM EDTA and 5% fetal bovine serum and then incubated again in the same buffer for 15 min at 37° C. prior to filtration through a cell strainer. After separation on a discontinuous 40% & 80% Percoll gradient, the mononuclear cell fraction was treated with ACK lysis buffer (Lonza). Mononuclear cells (1×10^6 cells/mL) were stimulated with phorbol 12-myristate 13-acetate (PMA, 50 ng/mL; Sigma), ionomycin (500 ng/mL; Sigma) in T cell media: RPMI 1640 (Invitrogen) supplemented with 10% (v/v) heat-inactivated FBS (Hyclone), 50 U penicillin-streptomycin (Invitrogen), 2 mM glutamine, and 50 μM β-mercaptoethanol. Cell culture supernatant was used for ELISA analyses. For flow cytometry, cells were incubated for 5 h with PMA, ionomycin and GolgiStop (BD). Intracellular cytokine staining was performed according to the manufacturer's protocol (Cytofix/Cytoperm buffer set from BD with alexa647-conjugated anti-IL-17a (eBioscience) and PE-conjugated anti-IFN-γ). LSR II (BD Biosciences) and FlowJo software (Tree Star) were used for flow cytometry and analysis. Dead cells were excluded using the Live/Dead fixable aqua dead cell stain kit (Invitrogen). Placenta/decidua extract were prepared by homogenizing samples in Tissue Extraction Reagent I (Invitrogen, FN0071) in the presence of protease inhibitor cocktail (Roche, 11873580001) on ice using pestles. The homogenates were centrifuged at 4° C. at 13,000 rpm for 20 min, and the supernatants were aliquotted and frozen at −80° C. For ELISA with sera and placenta/decidua extract, IL-6 (Ebioscience), IL-17a (Biolgened), and IL-10 (BD) were measured according to the manufacturer's protocol.
Cell preparation, Flow cytometry, ELISA Embryos at each implantation site were dissected in ice-cold HBSS containing Ca2+ and Mg2+ (Gibco). Myometrium was first peeled off of the decidua and embryos were discarded. Dissected decidual and placental tissues were then minced and enzymatically dissociated in HBSS containing 0.28 Wunsch units (WU)/mL Liberase (Roche) and 30 μg/mL DNase I (Roche) for 30 min at 37° C. with intermittent mixing. Digested tissues were washed in PBS containing 5 mM EDTA and 5% fetal bovine serum and then incubated again in the same buffer for 15 min at 37° C. prior to filtration through a cell strainer. After separation on a discontinuous 40% & 80% Percoll gradient, the mononuclear cell fraction was treated with ACK lysis buffer (Lonza). Mononuclear cells (1×10^6 cells/mL) were cultured for 24 h with or without phorbol 12-myristate 13-acetate (PMA, 50 ng/mL; Sigma) and ionomycin (500 ng/mL; Sigma) in T cell media: RPMI 1640 (Invitrogen) supplemented with 10% (v/v) heat-inactivated FBS (Hyclone), 50 U penicillin-streptomycin (Invitrogen), 2 mM glutamine, and 50 μM β-mercaptoethanol. Cell culture supernatant was used for ELISA analyses. Unstimulated cells were used to prepare total RNA for qPCR analyses. For flow cytometry, cells were incubated for 5 h with PMA, ionomycin and GolgiStop (BD). […]

Regarding poly(I:C), the “social interaction in adult offspring” value in data set [1] (prenatal exposure to MIA (poly(I:C) at E12.5)) is listed as “social interaction deficits”. For the same molecule, the “IL-17a in placenta/decidua extracts” value in data set [2] (PBS- or poly(I:C)-treated mothers) is “could not be detected”. In addition, in data set [2] (poly(I:C) at E12.5), the “time until serum IL-17a is detected after injection” value was in the range of 2 to 3 days and the “maternal serum IL-17a” value is given as “strong increase”. Also, the “maternal serum IL-17a” value in data set [2] (poly(I:C) at E12.5, listed as Poly(I:C)) is given as “further increase”. The “serum IL-17a at later embryonic stages” value in data set [2] (poly(I:C) injected mothers) is “continue to rise until E19.5”. Further, the “serum IL-17a at E14.5” value in data set [2] (poly(I:C) into pregnant dams lacking IL-6 (IL-6 KO)) is recorded as “failed to increase”.

B1: recombinant IL-6: carrier-free recombinant mouse IL-6 (R&D) (protein, UniProt P08505 25-211, looked up)
Interleukin-6: FPTSQVRRGDFTEDTTPNRPVYTTSQVGGLITHVLWEIVEMRKELCNGNSDCMNNDDALAENNLKLPEIQRNDGCYQTGYNQEICLLKISSGLLEYHSYLEYMKNNLKDNKKDKARVLQRDTETLIHIFNQEVKDLHKIVLPTPISNALLTDKLESQKEWLRTKTIQFILKSLEEFLKVTLRSTRQT
On to B1, for which, in data set [2] (injection into wild-type (WT) mothers), the “maternal serum IL-17a at E14.5” value is “sufficient to induce IL-17a levels comparable to those of poly(I:C)-injected WT mothers”.

B2: recombinant IL-17a protein: Recombinant mouse IL-17a cytokine (R&D), injected into the fetal brain ventricle (protein, UniProt Q62386 26-158, looked up)
Interleukin-17A: AAIIPQSSACPNTEAKDFLQNVKVNLKVFNSLGAKVSSRRPSDYLNRSTSPWTLHRNEDPDRYPSVIWEAQCRHQRCVNAEGKLDHHMNSVLIQQEILVLKREPESCPFTFRVEKMLVGVGCTCVASIVRQAA
Consider B2, for which the “mobility (total distance in social approach test)” value in data set [1] (intra-ventricular injection at E14.5) is listed as “not due to group differences in mobility”. In addition, the social approach behavior entry in data set [1] (intra-ventricular injection at E14.5, compared with sham injection) is reported as “social approach deficit”.
